Measured values reported in ChEMBL document CHEMBL1201862, “PubChem BioAssay data set” (2004).
Activity calls are given as the source filed them.

Columns and labels:
[1] = molecular target: T1, Nuclear receptor subfamily 0 group B member 1 (Homo sapiens, UniProt P51843); assay type: functional, cell-based;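 also: HEK293T cells transfected with SF-1 and DAX-1 plus StAR promoter luciferase reporter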
T1 sequence (P51843 whole entry): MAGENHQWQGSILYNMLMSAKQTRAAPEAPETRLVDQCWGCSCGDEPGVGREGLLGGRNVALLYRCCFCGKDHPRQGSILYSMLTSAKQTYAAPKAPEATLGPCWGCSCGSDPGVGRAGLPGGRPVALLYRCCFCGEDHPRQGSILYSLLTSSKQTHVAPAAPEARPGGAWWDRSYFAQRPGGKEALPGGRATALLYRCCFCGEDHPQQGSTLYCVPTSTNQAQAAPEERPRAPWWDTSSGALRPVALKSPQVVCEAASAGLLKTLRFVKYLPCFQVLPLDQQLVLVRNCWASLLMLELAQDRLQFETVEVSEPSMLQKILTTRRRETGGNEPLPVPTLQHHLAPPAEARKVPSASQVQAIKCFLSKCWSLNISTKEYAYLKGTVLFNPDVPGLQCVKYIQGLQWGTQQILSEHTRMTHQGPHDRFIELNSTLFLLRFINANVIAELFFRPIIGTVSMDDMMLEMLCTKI

[2] = molecular target: Latent membrane protein 1 (Human herpesvirus 4 (strain B95-8), UniProt P03230); assay: LMP1 TES1 pathway selectivity over dsRED control – imaging, HEK293T, dual-color eGFP/dsRED, cherry-picks, selectivity assay for LMP1 NF-kB inhibitor project, dose response (AID 588398); assay type: functional, cell-based
[3] = blockade of melanocortin 4 receptor signaling – cell-based, plate reader, cherry pick, counter-screen for LGR2 antagonist project, dose response (AID 743444); assay type: functional;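 also: transfected HEK 293 cells stimulated with alpha-MSH peptide; potency of inhibitors of the alpha-MSH evoked signal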
[4] = A549 cell cytotoxicity, dose response, cytotoxicity control, plate reader, cherry-pick, antagonist series (AID 743412); assay type: functional, cell-based
HEK293 = assay: EBV LMP1 TES2 canonical NF-kB signalling blockers – cell-based, HEK293, luciferase, cherry-pick, dose response (AID 588343); assay type: functional; details: Homo sapiens
[5] = blockers of bursicon-stimulated LGR2 cAMP reporter – cell-based, HEK293, CRE-luciferase reporter, cherry pick, set 2, dose response (AID 743343); assay type: functional;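 also: transfected cells were stimulated with diluted bursicon conditioned medium after compound addition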
cells = assay type: functional, cell-based
[6] = molecular target: T2, Type-1 angiotensin II receptor (Homo sapiens, UniProt P30556); assay: antagonism of angiotensin II type 1 receptor – cell-based, uHTS hits, selectivity assay for APJ receptor antagonist project, dose response (AID 463214); assay type: functional;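 also: antagonist potency against angiotensin II stimulated AT1 response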
T2 sequence (P30556 whole entry): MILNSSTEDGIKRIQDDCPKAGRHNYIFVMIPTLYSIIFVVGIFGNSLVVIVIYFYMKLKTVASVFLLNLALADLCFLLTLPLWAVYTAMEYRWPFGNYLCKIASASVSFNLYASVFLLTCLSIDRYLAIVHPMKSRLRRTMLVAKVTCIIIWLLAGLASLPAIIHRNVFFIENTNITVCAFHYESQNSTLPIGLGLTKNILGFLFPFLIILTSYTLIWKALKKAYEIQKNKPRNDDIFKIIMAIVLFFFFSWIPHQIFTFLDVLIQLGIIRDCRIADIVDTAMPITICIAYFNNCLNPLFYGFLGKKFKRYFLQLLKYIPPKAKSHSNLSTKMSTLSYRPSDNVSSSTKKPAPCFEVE

Beta-galactosidase = Beta-galactosidase (Escherichia coli, UniProt Q8VNN2); assay: PubChem AID 485352; assay type: functional
[7] = luciferase reporter signal suppression in cells – H4 neuroglioma cells, luminescence, dose response (AID 1990); assay type: functional, cell-based
[8] = reduction of Shn3 3'UTR-driven luciferase in osteoblasts – cell-based, Clone20 osteoblasts, firefly luciferase, cherry-picked, dose response (AID 624132); assay type: functional;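 also: firefly luciferase luminescence from reporter carrying the Shn3 3'UTR in osteoblasts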
Beta Lactamase = Beta Lactamase (Pseudomonas aeruginosa, UniProt Q932Y6); assay: BLA reporter interference, concentration series – BLA reporter cells, FRET fluorescence, artefact control for TLR9-MyD88 binding inhibitor project, dose response (AID 588341); assay type: cell-based;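 also: cell based assay in CHO-K1 cells stably expressing beta-lactamase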
[9] = Luminescence Cell-Based Dose Response HTS to Identify Inhibitors of 5'UTR Stem-Loop Driven Prion Protein mRNA Translation in H4 Neuroglioblastoma Cells. [Related pubchem assays: 1827 (Project Summary), 1813 (Primary HTS)]; assay type: functional
[10] = alpha-synuclein stem-loop luciferase translation blockers – H4 neuroglioma cells, luminescence, confirmation (AID 1988); assay type: functional, cell-based
[11] = molecular target: Heat shock protein HSP 90-alpha (Homo sapiens, UniProt P07900); assay type: functional, organism-based
CHO = CHO cell viability loss, potency – luminescence, cytotoxicity control for TLR9-MyD88 binding inhibitor project, dose response (AID 588339); assay type: functional, cell-based, hamster; details: Cricetulus griseus;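 also: CHO cells stably coexpressing TLR9 and MyD88 fusions from primary screen; compound exposure lasted 48 hours before viability readout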
[12] = non-specific 3'UTR reporter inhibition in Clone20-Shn3RL – cell-based, Renilla luciferase, cherry-picked, counter-screen for Shn3 inhibitor project, dose response (AID 624133); assay type: functional
INS1 = assay: INS-1E survival protection against cytokine death – cell-based, luminescence, retest, dose response (AID 449756); assay type: functional; details: Rattus norvegicus;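 also: cell death triggered by IL-1 beta plus TNF-alpha plus IFN-gamma mixture; protective hits raise ATP signal compared with cytokine alone wells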
[13] = loss of viability in HepG2 cells – cell-based, CellTiter-Glo, cherry-picked, cytotoxicity control for Shn3 inhibitor project, dose response (AID 624134); assay type: functional
[14] = Luminescence Cell-Based Dose Retest to Confirm Inhibitors of Cancer Stem Cells. [Related pubchem assays (depositor defined):AID2717, AID2721]; assay type: functional; details: Homo sapiens

Sequence of Beta-galactosidase (Q8VNN2 whole entry): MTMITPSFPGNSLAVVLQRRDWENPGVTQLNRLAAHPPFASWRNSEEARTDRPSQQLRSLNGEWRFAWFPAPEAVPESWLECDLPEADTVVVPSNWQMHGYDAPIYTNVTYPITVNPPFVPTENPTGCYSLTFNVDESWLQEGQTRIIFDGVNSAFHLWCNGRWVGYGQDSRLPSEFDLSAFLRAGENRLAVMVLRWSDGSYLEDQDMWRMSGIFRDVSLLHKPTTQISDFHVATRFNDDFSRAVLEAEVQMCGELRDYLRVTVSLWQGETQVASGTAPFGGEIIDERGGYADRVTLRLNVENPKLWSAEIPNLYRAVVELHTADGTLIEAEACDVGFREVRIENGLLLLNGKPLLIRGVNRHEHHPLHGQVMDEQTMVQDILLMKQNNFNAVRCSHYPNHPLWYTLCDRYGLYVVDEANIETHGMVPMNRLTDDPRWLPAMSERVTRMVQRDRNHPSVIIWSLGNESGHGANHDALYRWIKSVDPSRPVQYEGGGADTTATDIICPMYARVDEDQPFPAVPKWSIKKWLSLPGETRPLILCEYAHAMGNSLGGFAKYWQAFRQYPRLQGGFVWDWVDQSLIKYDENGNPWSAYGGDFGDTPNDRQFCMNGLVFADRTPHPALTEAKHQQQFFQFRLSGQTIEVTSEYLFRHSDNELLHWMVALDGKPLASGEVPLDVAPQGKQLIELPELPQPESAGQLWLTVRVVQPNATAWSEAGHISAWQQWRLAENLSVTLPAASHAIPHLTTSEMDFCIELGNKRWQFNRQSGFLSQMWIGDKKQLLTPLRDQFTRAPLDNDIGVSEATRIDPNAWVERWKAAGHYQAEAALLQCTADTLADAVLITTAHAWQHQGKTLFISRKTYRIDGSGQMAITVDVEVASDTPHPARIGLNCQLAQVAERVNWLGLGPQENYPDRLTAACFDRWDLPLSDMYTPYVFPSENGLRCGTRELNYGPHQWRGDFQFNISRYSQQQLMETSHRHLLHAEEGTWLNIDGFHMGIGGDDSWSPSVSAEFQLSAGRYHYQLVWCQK
Sequence of Beta Lactamase (Q932Y6 whole entry): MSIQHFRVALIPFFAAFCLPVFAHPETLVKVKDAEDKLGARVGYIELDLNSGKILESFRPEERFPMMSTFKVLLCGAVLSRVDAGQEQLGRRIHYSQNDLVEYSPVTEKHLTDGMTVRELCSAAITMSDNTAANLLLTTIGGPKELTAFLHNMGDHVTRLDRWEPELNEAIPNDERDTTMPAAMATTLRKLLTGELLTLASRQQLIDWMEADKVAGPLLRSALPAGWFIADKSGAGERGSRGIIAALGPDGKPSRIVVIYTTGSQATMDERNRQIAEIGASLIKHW
Sequence of Latent membrane protein 1 (P03230 whole entry): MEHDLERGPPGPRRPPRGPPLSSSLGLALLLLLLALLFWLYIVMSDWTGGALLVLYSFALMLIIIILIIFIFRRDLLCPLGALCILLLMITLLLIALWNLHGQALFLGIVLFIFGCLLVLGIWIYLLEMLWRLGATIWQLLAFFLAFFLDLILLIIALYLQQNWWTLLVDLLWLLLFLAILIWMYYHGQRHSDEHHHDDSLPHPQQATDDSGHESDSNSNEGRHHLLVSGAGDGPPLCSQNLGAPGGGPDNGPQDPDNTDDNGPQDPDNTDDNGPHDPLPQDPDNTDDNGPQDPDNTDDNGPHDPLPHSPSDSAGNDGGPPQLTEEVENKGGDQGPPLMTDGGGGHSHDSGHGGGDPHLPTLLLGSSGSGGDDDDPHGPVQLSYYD

| Compound | IC50 [1] | AC50 [2] | AC50 [3] | AC50 [4] | AC50 (HEK293) | AC50 [5] | IC50 (cells) | IC50 [6] | EC50 (Beta-galactosidase) | EC50 [7] | AC50 [8] | IC50 (Beta Lactamase) | EC50 [9] | EC50 [10] | AC50 [11] | IC50 (CHO) | AC50 [12] | AC50 (INS1) | AC50 [13] | AC50 [14] |
| --- | --- | --- | --- | --- | --- | --- | --- | --- | --- | --- | --- | --- | --- | --- | --- | --- | --- | --- | --- | --- |
| c1ccc(-c2cn3c4c(sc3n2)CCCC4)cc1 | > 67.6 µM (inactive) | 31.6 µM (active) | 4.25 µM (active) | 41.1 µM (active) | 1.92 µM (active) | 2.72 µM (active) | > 67.6 µM (inactive) |  |  |  |  |  |  |  |  |  |  |  |  |  |
| COc1ccc(OC)c(NC(=O)c2nc(S(=O)(=O)Cc3ccccc3)ncc2Cl)c1 |  |  |  |  |  |  |  | 5.87 µM (active) | > 40 µM (inactive) | 12.2 µM (active) | 2.08 µM (active) | 6.72 µM (active) | > 120 µM (not active) | 11.6 µM (active) | 2.95 µM (active) | 1.05 µM (active) | 3.79 µM (active) | 5.38 µM (active) | 13.7 µM (active) | 3.48 µM (active) |
